Laboratory results reported in publication PMC5876388 (Scientific Reports, 2018).
“Also recorded” adds a separate entry of the source. Like-named read-outs stand apart in the source and are kept apart here.

Legend:
[1] = test system: Notch signaling (LS174T Notch cells); assay: Notch signaling transcriptional activity assay (luciferase reporter, T-REx system); format: cell-based; details: for IC50: read-out: IC50 of Notch signal inhibitory activity (luciferase)
Description: We constructed a cell-based reporter assay with the T-Rex system to evaluate Notch signaling inhibitory activity. Without doxycycline (Dox), the tetracycline repressor (TetR) inhibits the expression of N-terminally FLAG-tagged mouse Notch1(1704–2531), which is 40 aa longer than NICD at the N-terminus. In the presence of Dox, Dox binds to the TetR to release the inhibition of expression of Notch1(1704–2531). Cleavage of Notch1(1704–2531) by γ-secretase generates NICD, which then translocates to the nucleus and forms a heterotrimer with RBP-J driving luciferase transcription (Fig. 2). This assay cells (LS174T Notch cells) was stably incorporated with pGL4.20 luciferase plasmid which has 12 × RBP-J binding site (12 copies of […])-β-globin promoter. Cell viability was measured using a fluorometric microculture cytotoxicity assay. […] The composition of the G. speciosa MeOH extract was partitioned successively with hexane, EtOAc, nBuOH, and water.
Figure 2 The T-REx assay system. Without Dox, expression of Notch1(1704–2531) is suppressed by TetR. The addition of Dox inactivates TetR to initiate expression of Notch1(1704–2531), which is then cleaved by endogenous γ-secretase to form NICD. NICD then translocates to the nucleus and forms a heterotrimer with RBP-J and MAML that binds to a 12× RBP-J binding site to drive luciferase expression. Luciferase activity was detected as Notch signaling pathway activity. Dox: doxycycline, TetR: tetracycline repressor, Luc.: luciferase.
Assay cells (LS174T Notch cells: 2 × 10^4 cells/well) were incubated in a 96-well white plate at 37 °C for 12 h. After incubation, 50 ng/mL Dox was added to each well to induce expression of exogenous Notch1(1704–2531) protein. After incubation at 37 °C for 12 h, the medium was changed to Dox-free medium containing individual samples. Luciferase activity was measured after treatment at 37 °C for 12 h. Cell viability was evaluated by the FMCA method at the same time. These assays were performed in 0.1% DMSO (n = 3). Error bars represent SD.
In a 96-well white plate, Cells (LS174T Notch cells; 2 × 10^4 cells per well) were cultured at 37 °C for 12 h. To express Notch1(1704–2531) protein in the cells, doxycycline (50 ng/mL) was added to each well, and cells were cultured at 37 °C for 12 h. Medium was changed to doxycycline-free medium containing each sample, then cells were incubated with at 37 °C for 12 h. A microplate luminometer (Thermo Fisher Scientific Inc., Waltham, USA) and the Bright-Glo™ Luciferase Assay System (Promega Co., Madison, USA) were used for measurement of Luciferase activity. Fluorometric Microculture Cytotoxicity Assay (FMCA) was used for measurement of cell viability of the sample-treated cells. After incubation of assay cells (2×10^4 cells per well) in a 96-well black plate at 37 °C for 24 h, samples addition was performed at the same time as the luciferase assay. The assay cells were cultures at 37 °C for 12 h. A fluorescence plate reader (Thermo Fisher Scientific Inc., Waltham, USA) was used for determination of cell viability by FMCA.

[2] = test system: HPB-ALL cells; assay: Cytotoxicity test, AlamarBlue
Protocol: HPB-ALL cells (1 × 10^4 cells per well) were incubated in 96-well black plates at 37 °C for 72 h. Media also contained different concentrations of compound. After incubation, AlamarBlue was added 10 μL per well. After incubation for 4 h, using a fluorescence plate reader, fluorescence was measured and cell viability was determined. Data are presented as the mean with SD from three independent experiments. […] The effect on protein expression was analyzed by Western blotting. β-Actin was used as internal control. (D,E) Relative protein levels of NICD and HES1 analyzed by densitometry. Data are presented as the mean with SD from three independent experiments. *P < 0.05 is considered statistically significant. P values were analyzed by Student’s t test.
HPB-ALL cells (1 × 10^4 cells per well) were incubated in 96-well black plates in 100 μL of RPMI-1640 medium with 10% FBS, Streptomycin (100 μg/mL) and Penicillin (100 unit/mL). Media also contained different concentrations of compound. Cells were incubated at 37 °C for 72 h. After incubation, AlamarBlue (00–025, DAL1025; Thermo Fisher Scientific Inc., Waltham, USA) was added 10 μL per well. After incubation for 4 h, using a fluorescence plate reader (Thermo Fisher Scientific Inc., Waltham, USA), fluorescence was measured and cell viability was determined.

[3] = Homo sapiens, LS174T Notch cells, 12 h treatment after Dox induction
[4] = LS174T Notch cells, 12 h treatment after Dox induction

SMILES	IC50 [1, 3] [µM]	IC50 of Notch signal inhibitory activity (luciferase) [1, 4]	other results
COc1c(O)cc2oc3cc(O)c(C/C=C(/C)CO)c(O)c3c(=O)c2c1C/C=C(\C)CCC=C(C)C [Compound 3, cowanol]			IC50 ([1]; Homo sapiens, LS174T, 12 h): 7.3 µM
CC(C)=CCC/C(C)=C/Cc1c(O)c(O)cc2oc3cc(O)c(CC=C(C)C)c(O)c3c(=O)c12 [Compound 4, norcowanin]	10.5		
COc1c(O)cc2oc3cc(O)cc(O)c3c(=O)c2c1C/C=C(\C)CCC=C(C)C [Compound 5, rubraxanthone]	> 40	weak activity or were inactive	
COc1cc2c(=O)c3c(O)c(C/C=C(\C)CCC=C(C)C)c(O)cc3oc2cc1O [Compound 6, cowaxanthone]		weak activity or were inactive; also recorded: inactive	
C=C(C)c1cc2c(O)c3c(=O)c4c(CC=C(C)C)c(OC)c(O)cc4oc3cc2o1 [Compound 12]		weak activity or were inactive; also recorded: inactive	
C[C@H](NC(=O)Cc1cc(F)cc(F)c1)C(=O)N[C@H](C(=O)OC(C)(C)C)c1ccccc1 [DAPT, N-[N-(3,5-difluorophenacetyl)-L-alanyl]-S-phenylglycine t-butyl ester, reference compound]			IC50 [1, 4]: 0.12 µM; IC50 [2]: > 20 µM

The next lines start with results.

IC50 [1, 3] [µM]	SMILES	IC50 of Notch signal inhibitory activity (luciferase) [1, 4]	other results
8	COc1c(O)cc2oc3cc(O)c(CC=C(C)C)c(O)c3c(=O)c2c1CC=C(C)C [Compound 1, α-mangostin]		
7.5	COc1cc2oc3cc(O)c(OC)c(CC=C(C)C)c3c(=O)c2c(O)c1CC=C(C)C [Compound 7, β-mangostin]		
> 40	COc1cc2oc3cc(O)c(CC=C(C)C)c(O)c3c(=O)c2c(CC=C(C)C)c1O [Compound 8, 6-methoxy-γ-mangostin]	weak activity or were inactive	
19.6	COc1c(O)cc2oc3cc4c(c(O)c3c(=O)c2c1CC=C(C)C)C=CC(C)(C)O4 [Compound 9, 9-hydroxycalabaxanthone]		
15	COc1cc2oc3cc(O)c(CC=C(C)C)c(O)c3c(=O)c2c(CC=C(C)C)c1OC [Compound 10, cowaxanthone B]		
11.7	COc1c(O)cc2oc3cc4c(c(O)c3c(=O)c2c1C/C=C(\C)CCC=C(C)C)C=CC(C)(C)O4 [Compound 11, fuscaxanthone A]		
